We go through 2 molecules from US4970162A, “Human-mouse hybrid cell line expressing monocyte-macrophage properties” (The United States of America as represented by the …, priority 1985, dated 1990).

Experiment [1] deals with WBC264-9 cells. Briefly: chemotaxis of WBC264-9 cells in 48-well microchemotaxis chamber. Type of experiment: cell-based, human-mouse hybrid. The method, then:
(§1) Chemotaxis by the cell lines was measured in a 48-well microchemotaxis chamber (Neuro Probe, Inc., Cabin John, Md.) with a 10 μm thick Nuclepore polycarbonate membrane coated with polyvinylpyrrolidone and containing 5 μm pores as described by Aksamit, et al., J. Immunol 126:2194 (1981). Upper wells contained 50,000 cells in MEM with 10% heat-inactivated fetal calf serum, and lower wells contained attractant in RPMI-1640 (GIBCO, Grand Island, N.Y.). […] EAMS was prepared as described by Aksamit et al., supra. Cells in the chemotaxis chamber were allowed to migrate for 4 hrs at 37° C. in an atmosphere of 5% CO2 and 95% air. The top cells were wiped off the filter, and cells on the bottom were stained in Diff-Quik (Harleco, Gibbstown, N.J.). Chemotaxis was quantified by measurement of the optical density of the migrated cells.

The test system of experiment [2] is RAW264 cells. Briefly: chemotaxis of RAW264 cells. Type of experiment: cell-based. Particulars: mouse RAW264 cells. The procedure: as §1
Experiment [3] relates to macrophage chemotaxis. The following applies: cited from earlier work.

`CSCC[C@H](NC=O)C(=O)N[C@@H](CC(C)C)C(=O)N[C@@H](Cc1ccccc1)C(=O)O` [FMLP, N-formylmethionine-leucine-phenylalanine]: the “chemotaxis to FMLP” value in experiment [1] (30 nM FMLP, cell line 9 (WBC264-9), for 20 passages, FIG. 1) is recorded as “high level of chemotaxis”; in experiment [2], “do not exhibit chemotaxis”. In addition, in experiment [1] (WBC264-9 cells, 4 hrs at 37° C., FIG. 2), the “concentration of optimal chemotactic response” value is reported as “approximately 3×10^-8 M”.

As to pertussis toxin, in experiment [3], the “inhibition of macrophage chemotaxis” value is “potent inhibitor”.
